Laboratory results: publication doi:10.1101/2024.04.19.590329, “Quantifying and controlling the proteolytic degradation of cell adhesion peptides” (bioRxiv, 2024)
Non-standard residues stand in square brackets, D forms with d. Residues, ends and D or L forms follow the SMILES beside them. βAla = NCCC(=O)O

What was measured:
[1] = Degradation of individual glycine-terminated peptide at 19.5 to 5,000 μM (cell type not stated); format: in vitro ADME; conditions: individual peptide with glycine at the terminus, initial concentration 5,000 μM, LCMS, cell type not stated (Fig. 4A)
Protocol: The column temperature was a constant 29 °C. The Mass Spectrometer was operated in positive ion mode.
Data Analysis was performed on Xcalibur Software (Thermo Scientific). […] Calculated data was visualized using RStudio.

[2] = test system: cells in gels, all cell types; assay: Viability of cells in gels (alamarBlue); format: cell-based, human; conditions: cells in PEG gels, days 0, 3 and 7, across all cell types
Protocol: Cells were cultured in gels as described. A working solution was made by diluting the alamarBlue dye (Y00–100, Thermo Scientific) (1:10) with the same media cells were cultured in. The media the cells were in was replaced with one ml of working solution. One ml of working solution was also placed into 3 blank wells. The cells were then placed in the incubator 36°C, 5% CO2 for 3 hours. After 3 hours, 100 μL of the solution was sampled and placed into a 96 well plate, and fluorescence intensity was measured using a Tecan plate reader using 560Ex/590Em nm filter settings, reading from the bottom of the plate. Immediately after measurement, the alamar blue working solution was washed three times with appropriate media for each cell type being measured and placed back in the incubator. The same cells were used for each measurement during days 0, 3, and 7.

Protocol for hUVECs: Passage 2 of human umbilical vein endothelial cells (hUVECs) (Life Technology) were seeded into 24 well plates at a seeding density of 150,000 cells per well in 1ml of expansion media (Lifeline Cell Technology, LM-0002) containing ascorbic acid, hydrocortisone, FBS, L-Glutamine, rh-EGF, heparin, and EnGS-US (All supplements LifeFactors, LS-1122). After 24 hour the media was changed. Peptide libraries, each containing 19 peptides and the non-proteolytically degradable βFβAβAβAβAβA-NH2 internal standard, were added to the cell media for a final concentration of 37 μM per peptide. Each library was tested in triplicate per per cell type per study. 40 μl samples were collected from the media at hours 0, 1, 4, 8, 24, and 48. In-between timepoints samples were frozen −80°C. […]
Data Analysis was performed on Xcalibur Software (Thermo Scientific). Peptides were identified automatically using the Thermo Xcalibur Processing Setup window where the mass (m/z) ±0.5 AMU and expected retention times for each quantified peptide were inputted. This was later used to isolate individual peptide species from the total ion count (TIC) trace using the Thermo Xcalibur Quan Setup window, where the area under the curve was calculated and visually inspected for accuracy. […] Relative amounts of a peptide of peptide were then calculated by normalized all values to their corresponding time zero area ratio.

CC(C)[C@H](NC(=O)[C@H](Cc1ccccc1)NC(=O)[C@H](CCC(=O)O)NC(=O)CNC(=O)[C@H](CCCNC(=N)N)NC(=O)CN)C(=O)NCCC(N)=O [amine-terminated RGEFV peptides] (H-GRGEFV[βAla]-NH2)
peptide remaining after 48 hours [1]: 5%

LIAANK
degradation in words (hUVECs): rapidly degraded

cyclic GRGDSK(N3) (head to tail) [cRGD, Cyclic RGD peptide, positive control, has no terminus, tethered to PEG-DBCO hydrogel by azide]
viability within gels, in words [2]: greatest viability
